{"source": "paper PMC10447463", "about": "“Data-mining unveils structure–property–activity correlation of viral infectivity enhancing self-assembling peptides” (Nature Communications, 2023)", "key": {"[1]": {"type": "physicochemical", "parameters": "key to Fibril / Fibril Formation / TEM 2cat / Fibril: 1 = fibrils present; 0 non-fibrillar structures", "settings": "for Fibril / Fibril Formation: TEM, 1 mg/mL, uranyl acetate stain, qualitative"}, "[2]": {"assay": "Turbidity, derived count rate of scattered light", "type": "physicochemical", "settings": "for Count Rate / kcps: derived count rate of scattered light at 633 nm, 173°, from zeta-potential measurement, 0.1 mg/mL in 1 mM KCl after 1 d at 1 mg/mL in PBS, turbidity / microscopic aggregation, mean of triplicate", "method_in_brief": "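One-day room-temperature aggregation at 1 mg/mL in PBS (pH 7.4) preceded measurement; samples then went into 1 mM KCl. Triplicates per sample, two independent experiments averaged.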"}}}
{"substance": "DFNKF [reference compound]", "values": [{"measurement": "Fibril / Fibril Formation", "setting": "[1]", "result": 1}, {"measurement": "Count Rate / kcps", "setting": "[2]", "result": 1065, "unit": "kcps"}]}
{"substance": "GAITIG-NH2 [reference compound]", "values": [{"measurement": "Fibril / Fibril Formation", "setting": "[1]", "result": 0}, {"measurement": "Count Rate / kcps", "setting": "[2]", "result": 30, "unit": "kcps"}]}
{"substance": "GNNQQNY [reference compound]", "values": [{"measurement": "Fibril / Fibril Formation", "setting": "[1]", "result": 0}, {"measurement": "Count Rate / kcps", "setting": "[2]", "result": 37, "unit": "kcps"}]}
{"substance": "GQTVTK [reference compound]", "values": [{"measurement": "Fibril / Fibril Formation", "setting": "[1]", "result": 0}, {"measurement": "Count Rate / kcps", "setting": "[2]", "result": 34, "unit": "kcps"}]}
{"substance": "IIKIIK [reference compound]", "values": [{"measurement": "Fibril / Fibril Formation", "setting": "[1]", "result": 0}, {"measurement": "Count Rate / kcps", "setting": "[2]", "result": 4, "unit": "kcps"}]}
{"substance": "NSGAITIG-NH2 [reference compound]", "values": [{"measurement": "Fibril / Fibril Formation", "setting": "[1]", "result": 0}, {"measurement": "Count Rate / kcps", "setting": "[2]", "result": 20, "unit": "kcps"}]}
{"substance": "RCELARTLKR [reference compound]", "values": [{"measurement": "Fibril / Fibril Formation", "setting": "[1]", "result": 0}, {"measurement": "Count Rate / kcps", "setting": "[2]", "result": 78, "unit": "kcps"}]}
{"substance": "RIRIQIC [PS07]", "values": [{"measurement": "TEM: 1= fibrils, 0= aggregates (micelle), 0.5 = aggregates and fibrils, -1 = nothing obersved, STD prep", "setting": "[1]; STD prep", "result": 1}, {"measurement": "Zeta Count Rate Category", "setting": "[2]; category 1 / 0, no key given", "result": 1}, {"measurement": "Zeta Count Rate / kcps", "setting": "[2]; derived count rate of scattered light", "result": 191.1, "unit": "kcps"}]}
{"substance": "VLYVGSKT [reference compound]", "values": [{"measurement": "Fibril / Fibril Formation", "setting": "[1]", "result": 0}, {"measurement": "Count Rate / kcps", "setting": "[2]", "result": 24, "unit": "kcps"}]}
{"substance": "VQIVYK [reference compound]", "values": [{"measurement": "Fibril / Fibril Formation", "setting": "[1]", "result": 0}, {"measurement": "Count Rate / kcps", "setting": "[2]", "result": 26, "unit": "kcps"}]}
